The values below come from US6784176B2, “Solvates of pymetrozine” (priority 1999, dated 2004).

The data set can be described thus: Reversible water uptake and release of pymetrozine at defined relative humidity. In kind it is physicochemical. Conditions: room temperature. The source says:
The above-mentioned water content of 16 to 17% by weight corresponds very well to a dihydrate. Even pesticidal formulations that contain water-free and solvent-free pymetrozine take up usually water or the corresponding solvent from the atmosphere when left to stand under sufficiently high vapour pressure.

For the compound `CC1=NNC(=O)N(/N=C/c2cccnc2)C1` [pymetrozine], under “relative humidity between 60% and 70%”, the water taken up lay in the range of 16 to 17 % by weight. Under “relative humidity of less than ca. 10%, water-containing pymetrozine”, the water release result was “gives up the water completely”.
